Measured values reported in patent US20250143299A1, “METHODS AND COMPOSITIONS FOR CONTROLLING PESTS IN VEGETABLES” (Globachem NV, priority 2022, published 2025).

Legend:
Type in all cases: in vivo
[1] = system: Leptinotarsa decemlineata; assay: Example 8 Trial 1 potato, Leptinotarsa decemlineata (Colorado potato beetle) control; settings: appl. AB, 8 DAB
Description: Potatoes—Leptinotarsa decemlineata (Colorado Potato Beetle)—LEPTNDE
Trial 1: Potatoes, variety Lady Amarilla, 4 replicates per plot, each plot at least 25 m^2. A water volume of 200 L water/ha was used for each application. Two applications were made at a 14d interval.
Application made at the occurrence of the insects. Application A was made at Stage BBCH 36, application B was made 14 days later at Stage BBCH 51.
Insects present at the time of application: at App A 39/10 plants at App B in untreated: 35/10 plants.

[2] = system: Tomato; assay: Example 2 phytotoxicity, necrosis/burn (PHYNEC) on tomato; parameters: key: % visual leaf necrosis/discoloration vs untreated plants; settings: appl. AB
Description: “Low Phytotoxicity” of pelargonic acid, as used herein means that the toxic effect on plants is absent or at such a level so as not to adversely impact the growth and/or yield of the plant under a given set of test conditions, e.g., at a given concentration of pelargonic acid. Phytotoxic effects may be measured in a number of different ways, for example, according to the principals set out in OEPP/EPPO Bulletin (2014) 44(3), 265-273 “PP 1/135 (4) Phytotoxicity assessment”. The phytotoxic effect on plants may be assessed visually as a function of the percentage of discoloration to the leaves and/or the appearance of necrosis. When the pelargonic acid compositions are applied to the foliage of the vegetable plants in accordance with the teachings herein, will typically result in a level of phytotoxicity of less than 20%, preferably less than 15%, more preferably less than 10% necrosis of the leaves in comparison to untreated plants. Preferred uses of the invention will typically result in phytotoxicity of 7% or less, whilst the most preferred uses will typically result in phytotoxicity of 5% or less. The above values are approximate as any purely visual assessment is likely to contain a degree of subjectivity.
Trial conducted in 4 replicates on plots of 25 plants each. Application was made at the occurrence of the insects.

[3] = system: Leptinotarsa decemlineata; assay: Example 8 Trial 2 potato, Leptinotarsa decemlineata (LEPTNDE) control; settings: appl. AB
Description: Trial 2: Potatoes, 4 replicates per plot, each plot at least 25 m^2. A water volume of 200 L water/ha was used for each application. Two applications were made at a 14d interval.
Application made at the occurrence of the insects. Application A was made at Stage BBCH 39-41, application B was made 14 days later at Stage BBCH 41-44.
Insects present at the time of application: at App A: 9/10 plants at App B in untreated: 44/10 plants

[4] = system: Acyrthosiphon pisum; assay: Example 6 pea trial, Acyrthosiphon pisum (pea aphid) control; settings: appl. A
Description: Peas—Acyrthosiphon pisum (Pea Aphid)
Trial conducted on peas, variety Navarro, 4 replicates per plot. Each plot was at least 12 m^2, a water volume of 200 L water per ha was used for the application.
Insects present at the time of application A: 106 aphids per 20 shoots. The stage of the crop at application A was BBCH 75-77, and at application B, (14 DAA) BBCH 79-81.

[5] = system: Pea; assay: Example 5 phytotoxicity, chlorosis (PHYCHL) on pea; parameters: scale not given here; settings: appl. AB
Experimental: The trial was conducted on peas, variety Batuta, 4 replicates per plot. A water volume of 200 L water/ha was used for each application. Two applications were made, Application A was made at first infestation and Application B was made 14d later. Each plot at least 12 m^2.

CCCCCCCCC(=O)O [PA, pelargonic acid]
COUINS # L1-L3/10 plants ([1]; 585 g/ha (0.9 L/ha)): 88.2 % UNCK
COUINS # L4/10 plants ([1]; 585 g/ha (0.9 L/ha)): 57.9 % UNCK
COUINS # L1-L3/10 plants ([1]; 975 g/ha (1.5 L/ha)): 17.6 % UNCK
COUINS # L4/10 plants ([1]; 975 g/ha (1.5 L/ha)): 57.9 % UNCK
COUINS # L1-L3/10 plants ([1]; 1300 g/ha (2.0 L/ha)): 82.4 % UNCK
COUINS # L4/10 plants ([1]; 1300 g/ha (2.0 L/ha)): 57.9 % UNCK
COUINS # L1-L3/10 plants ([1]; 2600 g/ha (4.0 L/ha)): 76.5 % UNCK
COUINS # L4/10 plants ([1]; 2600 g/ha (4.0 L/ha)): 68.4 % UNCK
Phytotoxicity - Necrosis/burn (PHYNEC) ([2]; 1300 g/ha (2 L/ha), 3 DAA): 0
Phytotoxicity - Necrosis/burn (PHYNEC) ([2]; 1300 g/ha (2 L/ha), 7 DAA): 0
Phytotoxicity - Necrosis/burn (PHYNEC) ([2]; 1300 g/ha (2 L/ha), 7 DAB): 0
Phytotoxicity - Necrosis/burn (PHYNEC) ([2]; 1300 g/ha (2 L/ha), 14 DAA): 0
Phytotoxicity - Necrosis/burn (PHYNEC) ([2]; 1950 g/ha (3 L/ha), 3 DAA): 0
Phytotoxicity - Necrosis/burn (PHYNEC) ([2]; 1950 g/ha (3 L/ha), 7 DAA): 0
Phytotoxicity - Necrosis/burn (PHYNEC) ([2]; 1950 g/ha (3 L/ha), 7 DAB): 0
Phytotoxicity - Necrosis/burn (PHYNEC) ([2]; 1950 g/ha (3 L/ha), 14 DAA): 0
Phytotoxicity - Necrosis/burn (PHYNEC) ([2]; 2600 g/ha (4 L/ha), 3 DAA): 0
Phytotoxicity - Necrosis/burn (PHYNEC) ([2]; 2600 g/ha (4 L/ha), 7 DAA): 0
Phytotoxicity - Necrosis/burn (PHYNEC) ([2]; 2600 g/ha (4 L/ha), 7 DAB): 0
Phytotoxicity - Necrosis/burn (PHYNEC) ([2]; 2600 g/ha (4 L/ha), 14 DAA): 0
Phytotoxicity - Necrosis/burn (PHYNEC) ([2]; 5200 g/ha (8 L/ha), 3 DAA): 0
Phytotoxicity - Necrosis/burn (PHYNEC) ([2]; 5200 g/ha (8 L/ha), 7 DAA): 0
Phytotoxicity - Necrosis/burn (PHYNEC) ([2]; 5200 g/ha (8 L/ha), 7 DAB): 0
Phytotoxicity - Necrosis/burn (PHYNEC) ([2]; 5200 g/ha (8 L/ha), 14 DAA): 0
COUINS # L1-L3/10 plants ([3]; 585 g/ha (0.9 L/ha), 7 DAA): 51.7 % UNCK
COUINS # L4/10 plants ([3]; 585 g/ha (0.9 L/ha), 7 DAA): 45 % UNCK
COUINS # L1-L3/10 plants ([3]; 585 g/ha (0.9 L/ha), 10 DAB): 68.6 % UNCK
COUINS # L4/10 plants ([3]; 585 g/ha (0.9 L/ha), 10 DAB): 64.2 % UNCK
COUINS Adults/10 plants ([3]; 585 g/ha (0.9 L/ha), 10 DAB): 48 % UNCK
COUINS # L1-L3/10 plants ([3]; 975 g/ha (1.5 L/ha), 7 DAA): 48.5 % UNCK
COUINS # L4/10 plants ([3]; 975 g/ha (1.5 L/ha), 7 DAA): 35 % UNCK
COUINS # L1-L3/10 plants ([3]; 975 g/ha (1.5 L/ha), 10 DAB): 76 % UNCK
COUINS # L4/10 plants ([3]; 975 g/ha (1.5 L/ha), 10 DAB): 77 % UNCK
COUINS Adults/10 plants ([3]; 975 g/ha (1.5 L/ha), 10 DAB): 55 % UNCK
COUINS # L1-L3/10 plants ([3]; 1300 g/ha (2.0 L/ha), 7 DAA): 70.9 % UNCK
COUINS # L4/10 plants ([3]; 1300 g/ha (2.0 L/ha), 7 DAA): 59.9 % UNCK
COUINS # L1-L3/10 plants ([3]; 1300 g/ha (2.0 L/ha), 10 DAB): 89.8 % UNCK
COUINS # L4/10 plants ([3]; 1300 g/ha (2.0 L/ha), 10 DAB): 86.2 % UNCK
COUINS Adults/10 plants ([3]; 1300 g/ha (2.0 L/ha), 10 DAB): 69 % UNCK
COUINS # L1-L3/10 plants ([3]; 2600 g/ha (4.0 L/ha), 7 DAA): 73.4 % UNCK
COUINS # L4/10 plants ([3]; 2600 g/ha (4.0 L/ha), 7 DAA): 80.9 % UNCK
COUINS # L1-L3/10 plants ([3]; 2600 g/ha (4.0 L/ha), 10 DAB): 93.4 % UNCK
COUINS # L4/10 plants ([3]; 2600 g/ha (4.0 L/ha), 10 DAB): 92.8 % UNCK
COUINS Adults/10 plants ([3]; 2600 g/ha (4.0 L/ha), 10 DAB): 78.9 % UNCK
COUINS (count of insects), 20 shoots ([4]; 585 g/ha (0.9 L/ha), 3 DAA (1st column)): 31.44 % UNCK
COUINS (count of insects), 20 shoots ([4]; 585 g/ha (0.9 L/ha), 3 DAA (2nd column)): 31.34 % UNCK
COUINS (count of insects), 20 shoots ([4]; 585 g/ha (0.9 L/ha), 3 DAA (3rd column)): 30.01 % UNCK
COUINS (count of insects), 20 shoots ([4]; 975 g/ha (1.5 L/ha), 3 DAA (1st column)): 34.03 % UNCK
COUINS (count of insects), 20 shoots ([4]; 975 g/ha (1.5 L/ha), 3 DAA (2nd column)): 33.84 % UNCK
COUINS (count of insects), 20 shoots ([4]; 975 g/ha (1.5 L/ha), 3 DAA (3rd column)): 35.76 % UNCK
COUINS (count of insects), 20 shoots ([4]; 1300 g/ha (2.0 L/ha), 3 DAA (1st column)): 52.54 % UNCK
COUINS (count of insects), 20 shoots ([4]; 1300 g/ha (2.0 L/ha), 3 DAA (2nd column)): 52.47 % UNCK
COUINS (count of insects), 20 shoots ([4]; 1300 g/ha (2.0 L/ha), 3 DAA (3rd column)): 53.62 % UNCK
COUINS (count of insects), 20 shoots ([4]; 2600 g/ha (4.0 L/ha), 3 DAA (1st column)): 65.75 % UNCK
COUINS (count of insects), 20 shoots ([4]; 2600 g/ha (4.0 L/ha), 3 DAA (2nd column)): 65.86 % UNCK
COUINS (count of insects), 20 shoots ([4]; 2600 g/ha (4.0 L/ha), 3 DAA (3rd column)): 65.31 % UNCK
Phytotoxicity - Chlorosis (PHYCHL) ([5]; 585 g/ha (0.9 L/ha), 3 DAA): 0
Phytotoxicity - Chlorosis (PHYCHL) ([5]; 585 g/ha (0.9 L/ha), 3 DAB): 0
Phytotoxicity - Chlorosis (PHYCHL) ([5]; 585 g/ha (0.9 L/ha), 7 DAA): 0
Phytotoxicity - Chlorosis (PHYCHL) ([5]; 585 g/ha (0.9 L/ha), 7 DAB): 0
Phytotoxicity - Chlorosis (PHYCHL) ([5]; 585 g/ha (0.9 L/ha), 14 DAA): 0
Phytotoxicity - Chlorosis (PHYCHL) ([5]; 585 g/ha (0.9 L/ha), 14 DAB): 0
Phytotoxicity - Chlorosis (PHYCHL) ([5]; 585 g/ha (0.9 L/ha), Same day A): 0
Phytotoxicity - Chlorosis (PHYCHL) ([5]; 585 g/ha (0.9 L/ha), Same day B): 0
Phytotoxicity - Chlorosis (PHYCHL) ([5]; 975 g/ha (1.5 L/ha), 3 DAA): 2
Phytotoxicity - Chlorosis (PHYCHL) ([5]; 975 g/ha (1.5 L/ha), 3 DAB): 2
Phytotoxicity - Chlorosis (PHYCHL) ([5]; 975 g/ha (1.5 L/ha), 7 DAA): 2
Phytotoxicity - Chlorosis (PHYCHL) ([5]; 975 g/ha (1.5 L/ha), 7 DAB): 2
Phytotoxicity - Chlorosis (PHYCHL) ([5]; 975 g/ha (1.5 L/ha), 14 DAA): 2
Phytotoxicity - Chlorosis (PHYCHL) ([5]; 975 g/ha (1.5 L/ha), 14 DAB): 0
Phytotoxicity - Chlorosis (PHYCHL) ([5]; 975 g/ha (1.5 L/ha), Same day A): 0
Phytotoxicity - Chlorosis (PHYCHL) ([5]; 975 g/ha (1.5 L/ha), Same day B): 3
Phytotoxicity - Chlorosis (PHYCHL) ([5]; 1300 g/ha (2.0 L/ha), 3 DAA): 5
Phytotoxicity - Chlorosis (PHYCHL) ([5]; 1300 g/ha (2.0 L/ha), 3 DAB): 6
Phytotoxicity - Chlorosis (PHYCHL) ([5]; 1300 g/ha (2.0 L/ha), 7 DAA): 6
Phytotoxicity - Chlorosis (PHYCHL) ([5]; 1300 g/ha (2.0 L/ha), 7 DAB): 6
Phytotoxicity - Chlorosis (PHYCHL) ([5]; 1300 g/ha (2.0 L/ha), 14 DAA): 4
Phytotoxicity - Chlorosis (PHYCHL) ([5]; 1300 g/ha (2.0 L/ha), 14 DAB): 0
Phytotoxicity - Chlorosis (PHYCHL) ([5]; 1300 g/ha (2.0 L/ha), Same day A): 5
Phytotoxicity - Chlorosis (PHYCHL) ([5]; 1300 g/ha (2.0 L/ha), Same day B): 4
Phytotoxicity - Chlorosis (PHYCHL) ([5]; 2600 g/ha (4.0 L/ha), 3 DAA): 15
Phytotoxicity - Chlorosis (PHYCHL) ([5]; 2600 g/ha (4.0 L/ha), 3 DAB): 23
Phytotoxicity - Chlorosis (PHYCHL) ([5]; 2600 g/ha (4.0 L/ha), 7 DAA): 20
Phytotoxicity - Chlorosis (PHYCHL) ([5]; 2600 g/ha (4.0 L/ha), 7 DAB): 13
Phytotoxicity - Chlorosis (PHYCHL) ([5]; 2600 g/ha (4.0 L/ha), 14 DAA): 20
Phytotoxicity - Chlorosis (PHYCHL) ([5]; 2600 g/ha (4.0 L/ha), 14 DAB): 2
Phytotoxicity - Chlorosis (PHYCHL) ([5]; 2600 g/ha (4.0 L/ha), Same day A): 15
Phytotoxicity - Chlorosis (PHYCHL) ([5]; 2600 g/ha (4.0 L/ha), Same day B): 20
